Results on 1 compound are retold here after paper PMC10485906, “Development of a Dihydroquinoline–Pyrazoline GluN2C/2D-Selective Negative Allosteric Modulator of the N-Methyl-D-aspartate Receptor” (ACS Chemical Neuroscience, 2023).

Like-named read-outs stand apart in the source and are kept apart here.

This data set is described as follows: Brain homogenate tissue binding and stability (RED device). The class given is in vitro ADME, mouse. The procedure: Carbamazepine (Apin Chemicals) served as a positive control for brain tissue binding. Test compounds and the positive control were initially dissolved in DMSO to make 1 mM stock solutions. […] A rapid equilibrium dialysis (RED) device (Thermo Scientific) containing a dialysis membrane with a molecular weight cutoff of 8000 Da was used to assess tissue binding and metabolic stability. […] The test compounds and positive control (200 μL of 5 μM solution) were added to the red chamber of the dialysis insert, while the white chamber was filled with dialysis buffer (350 μL). The RED device was then sealed with an adhesive film and incubated at 37 °C with shaking (300 rpm) for 4 h. For the initial time point (t = 0 min), 50 μL aliquots of test compounds and the positive control were added to 96-deep well plates (0.7 mL per well) and quenched with 400 μL of MeCN. Following dialysis, another 50 μL aliquot of the tested samples was removed from each well (brain homogenate and buffer) and diluted with an equal volume of the opposite matrix to nullify any matrix effects. […] The supernatant (100 μL) was subsequently transferred to 96-deep well plates for LC-MS/MS analysis. Prodrug metabolism and 2i concentrations were determined by fit-for-purpose LC-MS/MS methods on a nine-point calibration curve ranging from 0.12 to 7.5 μM.

Take `NC(=O)N1c2ccccc2C=Cc2ccccc21` [Carbamazepine, reference compound]: the fraction unbound at 4 h, 5 µM by setting is: (C57BL/6, mouse, brain homogenate (4 times diluted), pH 7.4, mouse brain tissue binding (free fraction in brain), read-out: % Unbound) 0.135; (C57BL/6, mouse, brain homogenate (4 times diluted), pH 7.4, mouse brain tissue binding, RED, 4 h, read-out: % Bound Mean ± SD (converted)) 0.135; (C57BL/6, mouse, brain homogenate (4 times diluted), pH 7.4, mouse brain tissue binding, RED, 4 h, read-out: % Bound R1 (converted)) 0.131; (C57BL/6, mouse, brain homogenate (4 times diluted), pH 7.4, mouse brain tissue binding, RED, 4 h, read-out: % Bound R2 (converted)) 0.14; (C57BL/6, mouse, brain homogenate (4 times diluted), pH 7.4, mouse brain tissue binding, read-out: fu) 0.135. The amount remaining at 4 h, 5 µM (C57BL/6, mouse, brain homogenate (4 times diluted), pH 7.4, starting concentration 5 μM, 4 h) was found to be 105%. Also, the recovery at 4 h, 5 μM (C57BL/6, pH 7.4, mouse brain tissue binding, RED, 4 h) was found to be 91%.
